Assay [1] deals with T1, Peroxisome proliferator-activated receptor alpha (Homo sapiens, UniProt Q07869).
T1 sequence (Q07869 whole entry): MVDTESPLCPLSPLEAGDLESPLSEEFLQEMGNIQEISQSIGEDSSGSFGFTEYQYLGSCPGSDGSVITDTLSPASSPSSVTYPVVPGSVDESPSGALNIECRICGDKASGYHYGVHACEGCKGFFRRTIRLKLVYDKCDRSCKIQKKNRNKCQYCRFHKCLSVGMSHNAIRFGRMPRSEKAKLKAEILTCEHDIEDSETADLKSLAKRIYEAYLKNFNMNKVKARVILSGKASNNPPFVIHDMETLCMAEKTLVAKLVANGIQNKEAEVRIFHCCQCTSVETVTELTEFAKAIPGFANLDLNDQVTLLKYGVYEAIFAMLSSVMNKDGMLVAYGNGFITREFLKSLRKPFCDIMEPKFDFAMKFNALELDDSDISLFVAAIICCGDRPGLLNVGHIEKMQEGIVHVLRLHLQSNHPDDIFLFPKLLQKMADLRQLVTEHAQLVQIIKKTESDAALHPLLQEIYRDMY
The experiment in a line: Agonist activity at human PPARalpha transactivation expressed in human HePG2 cells. It counts as functional, cell-based.

In assay [2] the target is T2, Peroxisome proliferator-activated receptor delta (Homo sapiens) (UniProt Q03181).
T2 sequence (whole entry): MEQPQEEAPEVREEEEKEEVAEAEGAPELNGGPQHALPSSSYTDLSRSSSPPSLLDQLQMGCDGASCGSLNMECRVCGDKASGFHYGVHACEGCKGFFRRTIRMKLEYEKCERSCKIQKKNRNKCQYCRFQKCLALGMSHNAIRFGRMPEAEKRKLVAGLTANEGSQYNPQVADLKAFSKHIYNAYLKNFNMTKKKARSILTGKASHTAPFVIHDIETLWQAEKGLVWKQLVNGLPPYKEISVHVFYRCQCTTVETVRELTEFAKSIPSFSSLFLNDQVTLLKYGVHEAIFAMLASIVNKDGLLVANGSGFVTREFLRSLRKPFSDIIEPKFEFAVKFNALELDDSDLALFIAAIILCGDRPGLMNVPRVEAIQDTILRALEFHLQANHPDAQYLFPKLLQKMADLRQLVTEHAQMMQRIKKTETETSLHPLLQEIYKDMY
The assay is described as follows: Agonist activity at human PPARdelta transactivation expressed in human HePG2 cells up to 1 uM. It counts as functional, cell-based.

In assay [3] the target is T3, Peroxisome proliferator-activated receptor gamma (Homo sapiens, UniProt P37231).
T3 sequence (P37231 whole entry): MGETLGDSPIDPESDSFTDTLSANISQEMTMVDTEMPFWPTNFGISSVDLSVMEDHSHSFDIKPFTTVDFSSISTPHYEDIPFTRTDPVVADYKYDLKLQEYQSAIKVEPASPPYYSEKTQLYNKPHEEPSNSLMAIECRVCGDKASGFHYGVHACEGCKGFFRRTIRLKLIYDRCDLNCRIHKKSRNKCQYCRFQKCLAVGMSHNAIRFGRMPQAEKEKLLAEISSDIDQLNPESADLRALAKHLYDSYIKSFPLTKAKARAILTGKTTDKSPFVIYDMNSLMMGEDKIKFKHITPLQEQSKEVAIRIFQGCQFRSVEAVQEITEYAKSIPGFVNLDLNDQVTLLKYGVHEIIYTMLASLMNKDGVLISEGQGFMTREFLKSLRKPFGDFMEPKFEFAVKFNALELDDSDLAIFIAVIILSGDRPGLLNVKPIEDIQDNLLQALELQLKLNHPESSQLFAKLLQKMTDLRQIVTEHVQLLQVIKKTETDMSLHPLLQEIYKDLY
The assay is described as follows: Agonist activity at human PPARgamma transactivation expressed in human HePG2 cells.

In the next assay the test system is HpG2. The experiment in a line: Selectivity ratio of EC50 for human PPARgamma receptor to human PPARalpha receptor expressed in human HpG2 cells. It counts as cell-based.
Assay [4] concerns the target T4, Peroxisome proliferator-activated receptor alpha (Homo sapiens) (UniProt Q07869).
T4 sequence (whole entry): T1 sequence (Q07869 whole entry)
The experiment in a line: Agonist activity at human PPARalpha transactivation expressed in human HePG2 cells up to1 uM. It counts as functional, cell-based.

Assay [5] addresses T5, Peroxisome proliferator-activated receptor gamma (Homo sapiens) (UniProt P37231).
T5 sequence (whole entry): T3 sequence (P37231 whole entry)
The experiment in a line: Agonist activity at human PPARgamma transactivation expressed in human HePG2 cells up to1 uM. It counts as functional, cell-based.

Active and inactive are the calls of the source. The rule behind the calls is not given here.

Take `COc1ccc(OC(=O)N(CC(=O)O)Cc2ccc(OCCc3nc(-c4ccccc4)oc3C)cc2)cc1` [MURAGLITAZAR]: the EC50 in assay [1] was 150 nM. The outcome in assay [2] was inactive.

Regarding `Cc1ccc(-c2nc(CCCC[C@H]3CO[C@@](C)(C(=O)O)OC3)c(C)o2)cc1`, the midpoint of the response in assay [3], the EC50, lay at 6850 nM. Besides, the outcome in assay [2] was inactive.

`Cc1ccc(-c2nc(COc3ccc(C[C@H]4CO[C@@](C)(C(=O)O)OC4)cc3)c(C)o2)cc1`: the EC50 in assay [1] amounted to 72 nM. In assay [2], the outcome was inactive. Further, the Ratio EC50 in the assay on HpG2 was determined as 0.2.

Turning to `COc1ccc(OC(=O)N(CCCCc2nc(-c3ccc(C)cc3)oc2C)CC(=O)O)cc1`, the outcome in assay [2], in assay [4] and in assay [5] was inactive.

`Cc1ccc(-c2nc(CCCCCCO/N=C(/CCC(=O)O)c3ccccc3)c(C)o2)cc1`: the EC50 in assay [1] turned out to be 0.1 nM; in assay [3], 100 nM. Besides, the result in assay [2] was inactive. Further, in the assay on HpG2, the Ratio EC50 amounted to 1000.

For the compound `Cc1ccc(-c2nc(CCCCO/N=C(\CCC(=O)O)c3ccccc3)c(C)o2)cc1`, the EC50 in assay [1] came to 0.0038 nM; in assay [3] it was 430 nM. In assay [2], the outcome was inactive. Also, the Ratio EC50 in the assay with HpG2 was found to be 113000.

`Cc1ccc(-c2nc(CCCCCO/N=C(/CCC(=O)O)c3ccccc3)c(C)o2)cc1`: the results for the EC50 in assay [1] and in assay [3] were 2 nM and 31 nM, respectively. The outcome in assay [2] was inactive. Moreover, in the assay with HpG2, the Ratio EC50 amounted to 15.

Regarding `COc1ccc(OC(=O)N(CCCCCc2coc(-c3ccc(C)cc3)n2)CC(=O)O)cc1`, the concentration for a half-maximal effect (EC50) in assay [1] worked out at 44 nM; in assay [3], 560 nM. For the same compound, in assay [2], the result was inactive. In addition, in the assay with HpG2, the Ratio EC50 worked out at 12.

With `COc1ccc(OC(=O)N(CCCCCCc2nc(-c3ccc(C)cc3)oc2C)CC(=O)O)cc1`, the EC50 in assay [1] worked out at 34 nM; in assay [3] it was 450 nM. The outcome in assay [2] was inactive. For the same compound, the Ratio EC50 in the assay on HpG2 was 13.

For `Cc1oc(-c2ccccc2)nc1COc1ccc(CO/N=C(\CCC(=O)O)c2ccccc2)cc1` [IMIGLITAZAR], the EC50 in assay [1] is 8 nM. The outcome in assay [2] was inactive.

For orientation: EC50 means the midpoint of the concentration-response curve.
